The assay deals with NHACs. The assay can be described thus: calcium flux assay. Format: cell-based, human. As to conditions: Homo sapiens; for Emax: read-out: (A) % Efficacy. Here is the method: NHACs were plated in 1536 Greiner plate at 2000 cells/well in 4 ul volume. 24 hours later, 4 ul of Calcium 5 dye solution (Hank's Balanced Salt/HEPES buffer containing 5 mM of Probenecid) was then added and incubated for 1 hour at room temperature. Fluorescence readings at excitation wavelength of 470-495 nm and emission wavelength of 515-575 nm were done using FLIPR high-throughput screening system (Molecular Devices, Sunnyvale, CA). The test compound was then added to each well at the indicated dose. Signal was measured prior compound dispense and after using a first interval of 1 second for 60 reads and second interval of 3 second for 20 reads. Data was analyzed using Molecular Devices ScreenWorks® Software.

One may read the EC50 as the concentration needed to bring the measured effect to its halfway point.

As to `Cc1cc([C@H]2[C@H]3O[C@H](C[C@H]3F)[C@@H]2C(=O)Nc2ccc(Cl)c(Cl)c2)ccn1` (single isomer, unassigned) [Example 92], the EC50 is above 50 µM and the Emax stood at 57%.

`Nc1ncc([C@H]2[C@H]3O[C@H]([C@@H]4C[C@@H]43)[C@@H]2C(=O)Nc2ccc(Cl)c(Cl)c2)cn1` [Example 132, (1S,2S,4R,5R,6R,7S)-7-(2-aminopyrimidin-5-yl)-N-(3,4-dichlorophenyl)-8-oxatricyclo[3.2.1.0^2,4]octane-6-carboxamide]: the EC50 worked out at 18 µM and the Emax turned out to be 321%.

For `Cc1cc([C@@H]2[C@@H](C(=O)Nc3ccc(Cl)c(Cl)c3)[C@H]3C[C@@](C)(O)[C@@H]2O3)ccn1` [Example 178, (1R,2R,3S,4R,5R)—N-(3,4-dichlorophenyl)-5-hydroxy-5-methyl-3-(2-methylpyridin-4-yl)-7-oxabicyclo[2.2.1]heptane-2-carboxamide], the EC50 is above 50 µM and the Emax was found to be 1%.

`O=C(Nc1ccc(Cl)c(Cl)c1)[C@@H]1[C@@H]2O[C@@H]([C@H]3C[C@H]32)[C@@H]1c1ccncc1` [Example 44, (1S,2S,4R,5R,6S,7S)—N-(3,4-dichlorophenyl)-7-(pyridin-4-yl)-8-oxatricyclo[3.2.1.0^2,4]octane-6-carboxamide]: the EC50 is above 50 µM and the Emax came to 0%.

Turning to `COc1cc([C@H]2[C@H]3O[C@H](C[C@@H]3O)[C@@H]2C(=O)Nc2ccc(Cl)c(Cl)c2)ccn1` (racemic) [Example 139, rac-(1R,2R,3S,4R,5S)—N-(3,4-dichlorophenyl)-5-hydroxy-3-(2-methoxypyridin-4-yl)-7-oxabicyclo[2.2.1]heptane-2-carboxamide], the EC50 is 21 µM and the Emax stood at 223%.

Regarding `Cc1cc([C@@H]2[C@@H](C(=O)Nc3cnc(Cl)c(Cl)c3)[C@@H]3O[C@H]2C[C@H]3F)ccn1` [Example 110, (1S,2R,3S,4S,6R)—N-(5,6-dichloropyridin-3-yl)-6-fluoro-3-(2-methylpyridin-4-yl)-7-oxabicyclo[2.2.1]heptane-2-carboxamide], the EC50 worked out at 28 µM and the Emax is 199%.

For `Cc1ccc([C@H]2[C@H]3O[C@H](C[C@@H]3F)[C@@H]2C(=O)Nc2ccc(Cl)c(Cl)c2)cn1` [Example 115, (1R,2R,3S,4R,5S)—N-(3,4-dichlorophenyl)-5-fluoro-3-(6-methylpyridin-3-yl)-7-oxabicyclo[2.2.1]heptane-2-carboxamide], the 50% effective concentration (EC50) worked out at 33 µM and the Emax was found to be 49%.

With `Cc1cc([C@H]2[C@H]3O[C@H]([C@H](O)[C@@H]3O)[C@@H]2C(=O)Nc2cnc(Cl)c(Cl)c2)ccn1` [Example 162, (1S,2R,3S,4R,5S,6R)—N-(5,6-dichloropyridin-3-yl)-5,6-dihydroxy-3-(2-methylpyridin-4-yl)-7-oxabicyclo[2.2.1]heptane-2-carboxamide], the EC50 was above 50 µM and the Emax came to 25%.

Take `Cc1cc([C@@H]2[C@@H]3O[C@@H]([C@H]4C[C@H]43)[C@H]2C(=O)Nc2cccc(C(F)(F)F)c2)ccn1` (single isomer, unassigned) [Example 121b]: the EC50 came out at 22 µM and the Emax was 92%.

On to `CO[C@H]1C[C@H]2O[C@@H]1[C@H](c1ccnc(C)c1)[C@H]2C(=O)Nc1ccc(Cl)c(Cl)c1` [Example 155, (1R,2R,3S,4R,5S)—N-(3,4-dichlorophenyl)-5-methoxy-3-(2-methylpyridin-4-yl)-7-oxabicyclo[2.2.1]heptane-2-carboxamide], for which the EC50 is 26 µM and the Emax worked out at 262%.

Take `Cc1cc([C@@H]2[C@@H]3O[C@@H](C[C@H]3O)[C@@H]2C(=O)Nc2cnc(Cl)c(Cl)c2)ccn1` (single isomer, unassigned) [Example 7]: the concentration giving a half-maximal response (EC50) was above 50 µM and the Emax was found to be 0%.

As to `O=C(Nc1ccc(Cl)c(Cl)c1)[C@@H]1[C@@H](c2cc(F)ncc2F)[C@H]2O[C@@H]1C[C@@H]2O` [Example 147, (1R,2R,3S,4R,5S)—N-(3,4-dichlorophenyl)-3-(2,5-difluoropyridin-4-yl)-5-hydroxy-7-oxabicyclo[2.2.1]heptane-2-carboxamide], the EC50 came out at 28 µM and the Emax stood at 284%.

On to `O=C(Nc1cnc(Cl)c(Cl)c1)[C@@H]1[C@@H]2O[C@@H]([C@H]3C[C@H]32)[C@@H]1c1ccncc1` (single isomer, unassigned) [Example 43b], for which the EC50 is above 50 µM and the Emax worked out at 3%.

Turning to `O=C(Nc1ccc(Cl)c(Cl)c1)[C@H]1[C@@H](c2cc(F)ncc2F)[C@H]2O[C@@H]1C[C@@H]2O` [Example 58, (1R,2S,3S,4R,5S)—N-(3,4-dichlorophenyl)-3-(2,5-difluoropyridin-4-yl)-5-hydroxy-7-oxabicyclo[2.2.1]heptane-2-carboxamide], the concentration for a half-maximal effect (EC50) was above 50 µM and the Emax amounted to 0%.

As for `COc1cc([C@H]2[C@H]3O[C@H]([C@@H]4C[C@@H]43)[C@@H]2C(=O)Nc2cnc(Cl)c(Cl)c2)ccn1` [Example 76, (1S,2S,4R,5R,6R,7S)—N-(5,6-dichloropyridin-3-yl)-7-(2-methoxypyridin-4-yl)-8-oxatricyclo[3.2.1.0^2,4]octane-6-carboxamide], the half-maximal effective concentration (EC50) was 5.8 µM and the Emax came out at 123%.

`O=C(Nc1ccc(Cl)c(Cl)c1)[C@H]1[C@@H](c2cncnc2)[C@H]2O[C@@H]1C[C@@H]2O` [Example 51, (1R,2S,3S,4R,5S)—N-(3,4-dichlorophenyl)-5-hydroxy-3-(pyrimidin-5-yl)-7-oxabicyclo[2.2.1]heptane-2-carboxamide]: the EC50 is above 50 µM and the Emax came to 0%.

Take `O=C(Nc1ccc(Cl)c(Cl)c1)[C@@H]1[C@@H](c2ccnc(C(F)(F)F)c2)[C@H]2O[C@@H]1C[C@@H]2O` (racemic) [Example 145, rac-(1R,2R,3S,4R,5S)—N-(3,4-dichlorophenyl)-5-hydroxy-3-(2-(trifluoromethyl)pyridin-4-yl)-7-oxabicyclo[2.2.1]heptane-2-carboxamide]: the concentration giving a half-maximal response (EC50) amounted to 17 µM and the Emax turned out to be 246%.

With `O=C(Nc1ccc(Cl)c(Cl)c1)[C@H]1[C@@H](c2ccncc2)[C@H]2O[C@@H]1C[C@@H]2O` (racemic) [Example 47, rac-(1R,2S,3S,4R,5S)—N-(3,4-dichlorophenyl)-5-hydroxy-3-(pyridin-4-yl)-7-oxabicyclo[2.2.1]heptane-2-carboxamide], the EC50 came out at 7.8 µM and the Emax was 38%.

On to `Cc1ccc([C@H]2[C@H]3O[C@H](C[C@H]3F)[C@H]2C(=O)Nc2ccc(Cl)c(Cl)c2)cn1` [Example 64, (1R,2S,3S,4R,5R)—N-(3,4-dichlorophenyl)-5-fluoro-3-(6-methylpyridin-3-yl)-7-oxabicyclo[2.2.1]heptane-2-carboxamide], for which the EC50 is 21 µM and the Emax was 253%.

With `O=C(Nc1cnc(Cl)c(Cl)c1)[C@@H]1[C@@H]2O[C@@H]([C@H]3C[C@H]32)[C@@H]1c1ccncc1` (racemic) [Example 43, rac-(1S,2S,4R,5R,6S,7S)—N-(5,6-dichloropyridin-3-yl)-7-(pyridin-4-yl)-8-oxatricyclo[3.2.1.0^2,4]octane-6-carboxamide], the EC50 is above 50 µM and the Emax was determined as 168%.
